{
  "source": "patent US11859252B2",
  "about": "“Diagnostic and therapeutic methods for cancer” (Genentech, Inc., priority 2017, dated 2024)",
  "key": {"[1]": {"system": "A549 cells", "experiment": "Apoptosis: cleaved PARP Western blot and Annexin V/propidium iodide flow cytometry", "type": "cell-based", "settings": "AZ-628 combined with cobimetinib; 48 hours; FIG. 2D-2E", "description": "(§1) Cells lysed in lysis buffer (0.5% NP40, 20 mM Tris, pH 7.5, 137 mM NaCl, 10% glycerol, 1 mM EDTA) plus protease inhibitor mixture-complete mini (Roche Applied Science, 11836170001) and phosphatase inhibitor mix (Thermo, 78426). Lysates were centrifuged at 15,000 rpm for 10 minutes and the protein concentration determined using BCA (Thermo, 23227). Equal amounts of protein were subjected to SDS-PAGE NuPAGE 4-12% Bis-Tris Gel (Novex, WG-1403) and transferred to nitrocellulose membrane (BioRad, 170-4159). After blocking in blocking buffer (Li-Cor, 927-40000), membranes were incubated with the indicated primary antibodies and analyzed either by the addition of secondary antibodies IRDye 680LT Goat anti-Mouse IgG (H+L) (Li-Cor, 926-68050) or IRDye 800CW goat anti-Rabbit IgG (H+L) (Li-Cor, 926-32211). The membranes were visualized on the LiCor Odyssey CLx Scanner."}, "[2]": {"system": "SW48 isogenic cell line", "experiment": "SW48 isogenic KRAS knock-in cells, crystal violet and pERK Western blot", "type": "cell-based", "settings": "AZ-628 starting at 0.1 μM, cobimetinib 250 nM; FIGS. 6F-6G", "description": "(§2) Cells were plated in duplicate in 6-well plates at 10,000 cells/well, allowed to attach overnight and treated for 8 days with the indicated compounds. Media with appropriate compounds was replenished every 72 hours. At 8 days cells were rinsed once with PBS, fixed and stained with crystal violet solution (Sigma Aldrich, HT90132) for 20 minutes and washed with water.\nas §1"}, "[3]": {"system": "panel of 213 tumor cell lines", "experiment": "213 cell line panel, co-diluted combinations with pictilisib", "type": "cell-based", "settings": "3 days, FIG. 7A", "description": "(§3) Compounds were screened in nine-point dose response using a three-fold dilution. Cells were seeded into 384-well plates 24 hours prior to compound addition. Cells were then incubated with compound for 72 hours or 120 hours before assaying viability (CellTiter-Glo, Promega). Assays were performed in biological triplicate. Cells were incubated (37° C., 5% CO2) in RPMI-1640, 2.5% FBS (72 hour assay) or 5% FBS (120 hour assay), and 2 mM glutamine throughout the assay. The reported IC50 and mean viability metrics are as follows: IC50 is the dose at which the estimated inhibition is 50% relative to untreated wells (i.e., absolute IC50). Mean viability is equivalent to the area under the log-dose/viability curve divided by the total number of tested doses.\n(§4) For combination synergy studies, cells were plated in 384-well plates (Corning) and treated with varying concentrations of compound, either alone or in combination for 72 hours. Cell viability was determined using CellTiter-Glo Luminescent Cell Viability Assay (Promega, G7573). Synergistic effects were determined using the Bliss independence analysis methods (Greco et al. Pharmacol. Rev. 47: 331-385, 1995; Chou and Talalay. Adv. Enzyme Regul. 22:27-55, 1984; Chou. Cancer Res. 70: 440-446, 2010; Bliss. Ann. Appl. Biol. 25: 31, 1939)."}, "[4]": {"system": "NRAS mutant melanoma cell line", "experiment": "Viability of NRAS mutant melanoma versus BRAF-V600E and wild-type lines", "type": "cell-based", "description": "Compounds were screened in nine-point dose response using a three-fold dilution. Cells were seeded into 384-well plates 24 hours prior to compound addition. Cells were then incubated with compound for 72 hours or 120 hours before assaying viability (CellTiter-Glo, Promega). Assays were performed in biological triplicate. […] Mean viability is equivalent to the area under the log-dose/viability curve divided by the total number of tested doses."}, "[5]": {"system": "pMEK, pERK, pRSK, pAKT", "experiment": "Immunoblot of pathway markers after compound treatment", "type": "cell-based", "settings": "A549", "description": "as §1"}, "[6]": {"system": "322 cell lines (pancreas, lung, colorectal, skin, ovary and blood)", "experiment": "322 cell line screen, AZ-628 and cobimetinib single agents and co-dilution", "type": "cell-based", "description": "as §3, §4"}, "[7]": {"system": "NCI-H2122 lung xenograft tumor", "experiment": "NCI-H2122 lung xenograft tumor model", "experimental": "The formulations were mixed well by vortexing before dosing. Test articles were stored in a refrigerator set to maintain a temperature range of 4° C.-7° C.\nOnly animals that appeared to be healthy and that were free of obvious abnormalities were used for each study. Tumor volumes were determined using digital calipers (Fred V. Fowler Company, Inc.) using the formula (L×W×W)/2. […] Mice were weighed twice a week using a standard scale."}, "[8]": {"system": "A549 cells", "experiment": "Clonogenic (colony growth) assay", "type": "cell-based", "description": "as §2"}, "[9]": {"system": "DUSP6 and SPRY4", "experiment": "RNA sequencing of MAPK transcriptional targets", "type": "cell-based", "settings": "0.1 μM AZ-628 combined with cobimetinib; six hours; four KRAS mutant lung cancer cell lines; FIG. 2C", "description": "Cells were seeded overnight and treated with AZ-628 and cobimetinib either singly (0.1 μM) or in combination (0.1 μM each) for 6 hours. Control cells were treated with DMSO (0.2% final concentration). Total RNA was extracted as per manufacturer's protocol using RNEasy mini kits with on-column DNAse digestion (Qiagen #74106 and #79254). Quality control of samples was done to determine RNA quantity and quality prior to their processing by RNA-seq. The concentration of RNA samples was determined using NanoDrop 8000 (Thermo Scientific) and the integrity of RNA was determined by Fragment Analyzer (Advanced Analytical Technologies). 0.5 μg of total RNA was used as an input material for library preparation using TruSeq RNA Sample Preparation Kit v2 (Illumina). Size of the libraries was confirmed using 2200 TapeStation and High Sensitivity D1000 screen tape (Agilent Technologies) and their concentration was determined by qPCR based method using Library quantification kit (KAPA). The libraries were multiplexed and then sequenced on Illumina HiSeq2500 (Illumina) to generate 30M of single-end 50 base pair reads.\nReads were mapped to the hg19 genome using RefSeq gene models with the aligner GSNAP. […] Significance for linear model terms was determined by moderated t-tests as implemented in the limma software."}},
  "note": "“Also recorded” adds a separate entry of the source.",
  "data": [
    {"smiles": "Cc1ccc(NC(=O)c2cccc(C(C)(C)C#N)c2)cc1Nc1ccc2ncn(C)c(=O)c2c1", "note": "[AZ-628]", "values": [
      {"measurement": "induction of apoptosis", "setting": "[1]", "value": "significant induction of cell apoptosis; also recorded: increased cleaved PARP"},
      {"measurement": "synergy with cobimetinib by KRAS knock-in", "setting": "[2]", "value": "displayed greater synergy than KRAS-G12D and KRAS-G12C knock-in cells; also recorded: greater in KRAS-G13D mutant SW48 cells compared to KRAS-G12D or KRAS-G12C mutant SW48 cells"},
      {"measurement": "synergy (positive Bliss excess) with pictilisib", "setting": "[3]", "value": "large general increased synergy in the AZ-628/pictilisib combination compared to the cobimetinib/pictilisib combination; also recorded: synergizes with pan-PI3K inhibitor, pictilisib (GDC-0941)"},
      {"measurement": "effect on mean viability, NRAS mutant vs BRAF-V600E", "setting": "[4]; FIG. 8A", "value": "approximately equivalent effects on mean viability"},
      {"measurement": "cell viability and 1050, NRAS mutant vs BRAF-V600E", "setting": "[4]; separate study, FIGS. 8C and 8D", "value": "had an equivalent effect in NRAS mutant and BRAF-V600E mutant cell lines"},
      {"measurement": "pMEK accumulation and signaling to ERK", "setting": "[5]; AZ-628 combined with pictilisib, 24 hours, FIG. 7G", "value": "prevent the accumulation of pMEK and abrogate downstream signaling to ERK"},
      {"measurement": "pAKT levels", "setting": "[5]; AZ-628 in combination with cobimetinib, FIG. 2B", "value": "little observed impact on pAKT levels"},
      {"measurement": "MAPK pathway output (pMEK, pERK, pRSK)", "setting": "[5]; RAF inhibitor 0.1-10 μM with or without fixed dose cobimetinib, 24 hours, FIG. 2B", "value": "only in combination with cobimetinib effectively inhibited MAPK pathway output"},
      {"measurement": "association of combination sensitivity with KRAS-G13D", "setting": "[6]; AZ-628 and cobimetinib, FIGS. 6A-6C", "value": "significant association between sensitivity to the RAF plus MEK inhibitor combination and presence of the G13D mutation; also recorded: KRAS-G13D mutant cell lines are more sensitive to the combination of RAF and MEK inhibition"},
      {"measurement": "synergy score (positive Bliss excess) with cobimetinib by genotype", "setting": "[6]; co-dilution with cobimetinib, 3 days, FIG. 5A", "value": "Significantly higher synergy scores were observed in KRAS and NRAS mutant cell lines compared to either BRAF-V600 mutants or wild-type; also recorded: greater synergy in RAS mutant (G12/G13/Q61) cell lines, and a subset of RAS/RAF wild-type cell lines relative to BRAF-V600 cell lines"},
      {"measurement": "tumor growth, combination with cobimetinib", "setting": "[7]; NCI-H2122, AZ-628+GDC-0973, FIG. 3A", "value": "robust combination effect"},
      {"measurement": "tolerability / body weight", "setting": "[7]; NCI-H2122 xenograft mice, combination with cobimetinib, FIG. 3B", "value": "well tolerated in the mice, resulting in little or minimal changes in body weight post-treatment"},
      {"measurement": "single-agent effect on cell growth", "setting": "[8]; 8-day clonogenic, 50-100 nM cobimetinib, 100 nM AZ-628", "value": "had little effect on cell growth on their own"},
      {"measurement": "synergy with cobimetinib in colony formation", "setting": "[8]; 8 days, crystal violet, FIG. 2F, 5E", "value": "marked synergy"},
      {"measurement": "downregulation of DUSP6 and SPRY4", "setting": "[9]", "value": "downregulation of these genes was more profound than expected if the effect of combining the two single agents was merely additive"}
    ]}
  ]
}
